From patent publication US20250163104A1, “MACROCYCLIC IMMUNOMODULATORS” (priority 2021, published 2025)
pIC50: −log10 of the molar value. Where a SMILES comes first, the peptide text is derived from it. Bridges are numbered along the chain shown (N, C = ends). [ ]: non-standard residue; d: D form. Bip = N[C@@H](Cc1ccc(-c2ccccc2)cc1)C(=O)O; Cit = NC(=O)NCCC[C@H](N)C(=O)O; Orn = NCCC[C@H](N)C(=O)O; Dab = NCC[C@H](N)C(=O)O

target: T1, human PD-1 / PD-L1-Ig binding on Jurkat cell line over-expressing human PD-1 (Jurkat-PD-1) (Homo sapiens, UniProt Q15116); assay: Jurkat-PD-1 Cell Binding High-Content Screening Assay (CBA); format: cell-based; settings: Jurkat-PD-1 cells, PE-labeled PD-L1-Ig 20 nM final; read-out: Jurkat HPD1_PDL1 IC50
T1 construct: expressed in transfected cells; host or cells: Jurkat
T1 sequence (Q15116 25-288): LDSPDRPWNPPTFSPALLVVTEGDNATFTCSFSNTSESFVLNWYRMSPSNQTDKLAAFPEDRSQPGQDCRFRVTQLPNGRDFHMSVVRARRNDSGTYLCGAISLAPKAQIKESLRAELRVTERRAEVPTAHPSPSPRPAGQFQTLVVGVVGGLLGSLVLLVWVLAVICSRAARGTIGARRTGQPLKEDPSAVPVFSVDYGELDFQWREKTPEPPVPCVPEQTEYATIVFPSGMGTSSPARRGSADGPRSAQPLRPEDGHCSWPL
Outline: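 Jurkat cells over-expressing human PD-1, in DMEM/10% FCS, pre-incubated with compound 2 h at 37° C. PE-labeled human PD-L1-Ig (20 nM final) added for 1 h; cells fixed in paraformaldehyde with Hoechst 33342 nuclear stain, washed, and bound fluorescence quantified by high-content imaging.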

SMILES | pIC50
CC(C)C[C@@H]1NC(=O)[C@H](CCN)NC(=O)[C@@H](CC(C)C)NC(=O)[C@H](CCCN)NC(=O)[C@H](CCCNC(N)=O)NC(=O)[C@H](Cc2ccc(-c3ccccc3)cc2)NC(=O)[C@H](C(C)C)NC(=O)[C@H](Cc2c[nH]c3ccccc23)NC(=O)[C@H](CC(=O)O)NC(=O)[C@H](Cc2ccc(O)cc2)NC(=O)[C@H](CC(N)=O)NC(=O)CSC[C@@H](C(=O)NCC(N)=O)NC(=O)[C@H]([C@@H](C)O)NC(=O)[C@H](C(C)C)NC1=O [Compound 1115] ({CH2CO}-NYDWV[Bip][Cit][Orn][dL][Dab]LVTCG-NH2; thioether N-14) | 7.10
CC(C)C[C@@H]1NC(=O)[C@H](CCN)NC(=O)[C@@H](CC(C)C)NC(=O)[C@H](CCCCN)NC(=O)[C@H](CCCNC(N)=O)NC(=O)[C@H](Cc2ccc(-c3ccccc3)cc2)NC(=O)[C@H](C(C)C)NC(=O)[C@H](Cc2c[nH]c3ccccc23)NC(=O)[C@H](CC(=O)O)NC(=O)[C@H](Cc2ccc(O)cc2)NC(=O)[C@H](CC(N)=O)NC(=O)CSC[C@@H](C(=O)NCC(N)=O)NC(=O)[C@H]([C@@H](C)O)NC(=O)[C@H](C(C)C)NC1=O [Compound 1116] ({CH2CO}-NYDWV[Bip][Cit]K[dL][Dab]LVTCG-NH2; thioether N-14) | 7.41
CC(C)C[C@@H]1NC(=O)[C@H](CCN)NC(=O)[C@@H](CC(C)C)NC(=O)[C@H](CCN)NC(=O)[C@H](CCCNC(N)=O)NC(=O)[C@H](Cc2ccc(-c3ccccc3)cc2)NC(=O)[C@H](C(C)C)NC(=O)[C@H](Cc2c[nH]c3ccccc23)NC(=O)[C@H](CC(=O)O)NC(=O)[C@H](Cc2ccc(O)cc2)NC(=O)[C@H](CC(N)=O)NC(=O)CSC[C@@H](C(=O)NCC(N)=O)NC(=O)[C@H]([C@@H](C)O)NC(=O)[C@H](C(C)C)NC1=O [Compound 1117] ({CH2CO}-NYDWV[Bip][Cit][Dab][dL][Dab]LVTCG-NH2; thioether N-14) | 7.41
CC[C@H](C)[C@@H]1NC(=O)[C@H](Cc2ccc(-c3ccccc3)cc2)NC(=O)[C@H](C(C)C)NC(=O)[C@H](Cc2c[nH]c3ccccc23)NC(=O)[C@H](CC(=O)O)NC(=O)[C@H](Cc2ccc(O)cc2)NC(=O)[C@H](CC(N)=O)NC(=O)CSC[C@@H](C(=O)NCC(N)=O)NC(=O)[C@H](CO)NC(=O)[C@H](C(C)C)NC(=O)[C@H](CC(C)C)NC(=O)[C@H](CCN)NC(=O)[C@@H](CC(C)C)NC(=O)[C@H](CCCN)NC1=O [Compound 1121] ({CH2CO}-NYDWV[Bip]I[Orn][dL][Dab]LVSCG-NH2; thioether N-14) | 7.68
CC[C@H](C)[C@@H]1NC(=O)[C@H](Cc2ccc(-c3ccccc3)cc2)NC(=O)[C@H](C(C)C)NC(=O)[C@H](Cc2c[nH]c3ccccc23)NC(=O)[C@H](CC(=O)O)NC(=O)[C@H](Cc2ccc(O)cc2)NC(=O)[C@H](CC(N)=O)NC(=O)CSC[C@@H](C(=O)NCC(N)=O)NC(=O)[C@H](CO)NC(=O)[C@H](C(C)C)NC(=O)[C@H](CC(C)C)NC(=O)[C@H](CCN)NC(=O)[C@@H](CC(C)C)NC(=O)[C@H](CCN)NC1=O [Compound 1123] ({CH2CO}-NYDWV[Bip]I[Dab][dL][Dab]LVSCG-NH2; thioether N-14) | 7.83
CC[C@H](C)[C@@H]1NC(=O)[C@H](Cc2ccc(-c3ccccc3)cc2)NC(=O)[C@H](C(C)C)NC(=O)[C@H](Cc2c[nH]c3ccccc23)NC(=O)[C@H](CC(=O)O)NC(=O)[C@H](Cc2ccc(O)cc2)NC(=O)[C@H](CC(N)=O)NC(=O)CSC[C@@H](C(=O)NCC(N)=O)NC(=O)[C@H]([C@@H](C)O)NC(=O)[C@H](C(C)C)NC(=O)[C@H](CC(C)C)NC(=O)[C@H](CCN)NC(=O)[C@@H](CC(C)C)NC(=O)[C@H](CCCN)NC1=O [Compound 1124] ({CH2CO}-NYDWV[Bip]I[Orn][dL][Dab]LVTCG-NH2; thioether N-14) | 7.61
CC[C@H](C)[C@@H]1NC(=O)[C@H](Cc2ccc(-c3ccccc3)cc2)NC(=O)[C@H](C(C)C)NC(=O)[C@H](Cc2c[nH]c3ccccc23)NC(=O)[C@H](CC(=O)O)NC(=O)[C@H](Cc2ccc(O)cc2)NC(=O)[C@H](CC(N)=O)NC(=O)CSC[C@@H](C(=O)NCC(N)=O)NC(=O)[C@H]([C@@H](C)O)NC(=O)[C@H](C(C)C)NC(=O)[C@H](CC(C)C)NC(=O)[C@H](CCN)NC(=O)[C@@H](CC(C)C)NC(=O)[C@H](CCN)NC1=O [Compound 1126] ({CH2CO}-NYDWV[Bip]I[Dab][dL][Dab]LVTCG-NH2; thioether N-14) | 7.62
CC[C@H](C)[C@@H]1NC(=O)[C@H](Cc2ccc(-c3ccccc3)cc2)NC(=O)[C@H](C(C)C)NC(=O)[C@H](Cc2c[nH]c3ccccc23)NC(=O)[C@H](CC(=O)O)NC(=O)[C@H](Cc2ccc(O)cc2)NC(=O)[C@H](CC(N)=O)NC(=O)CSC[C@@H](C(=O)NCC(N)=O)NC(=O)[C@H]([C@@H](C)O)NC(=O)[C@H](C(C)C)NC(=O)[C@H](CC(C)C)NC(=O)[C@H](CCCCN)NC(=O)[C@@H](CC(C)C)NC(=O)[C@H](CCCN)NC1=O [Compound 1131] ({CH2CO}-NYDWV[Bip]I[Orn][dL]KLVTCG-NH2; thioether N-14) | 7.61

The remaining lines, values ahead:

pIC50 | SMILES
7.64 | CC[C@H](C)[C@@H]1NC(=O)[C@H](Cc2ccc(-c3ccccc3)cc2)NC(=O)[C@H](C(C)C)NC(=O)[C@H](Cc2c[nH]c3ccccc23)NC(=O)[C@H](CC(=O)O)NC(=O)[C@H](Cc2ccc(O)cc2)NC(=O)[C@H](CC(N)=O)NC(=O)CSC[C@@H](C(=O)N[C@@H](C)C(N)=O)NC(=O)[C@H](CO)NC(=O)[C@H](C(C)C)NC(=O)[C@H](CC(C)C)NC(=O)[C@H](CCN)NC(=O)[C@@H](CC(C)C)NC(=O)[C@H](CCCN)NC1=O [Compound 1118] ({CH2CO}-NYDWV[Bip]I[Orn][dL][Dab]LVSCA-NH2; thioether N-14)
7.88 | CC[C@H](C)[C@@H]1NC(=O)[C@H](Cc2ccc(-c3ccccc3)cc2)NC(=O)[C@H](C(C)C)NC(=O)[C@H](Cc2c[nH]c3ccccc23)NC(=O)[C@H](CC(=O)O)NC(=O)[C@H](Cc2ccc(O)cc2)NC(=O)[C@H](CC(N)=O)NC(=O)CSC[C@@H](C(=O)N[C@@H](C)C(N)=O)NC(=O)[C@H](CO)NC(=O)[C@H](C(C)C)NC(=O)[C@H](CC(C)C)NC(=O)[C@H](CCN)NC(=O)[C@@H](CC(C)C)NC(=O)[C@H](CCCCN)NC1=O [Compound 1119] ({CH2CO}-NYDWV[Bip]IK[dL][Dab]LVSCA-NH2; thioether N-14)
7.94 | CC[C@H](C)[C@@H]1NC(=O)[C@H](Cc2ccc(-c3ccccc3)cc2)NC(=O)[C@H](C(C)C)NC(=O)[C@H](Cc2c[nH]c3ccccc23)NC(=O)[C@H](CC(=O)O)NC(=O)[C@H](Cc2ccc(O)cc2)NC(=O)[C@H](CC(N)=O)NC(=O)CSC[C@@H](C(=O)N[C@@H](C)C(N)=O)NC(=O)[C@H](CO)NC(=O)[C@H](C(C)C)NC(=O)[C@H](CC(C)C)NC(=O)[C@H](CCN)NC(=O)[C@@H](CC(C)C)NC(=O)[C@H](CCN)NC1=O [Compound 1120] ({CH2CO}-NYDWV[Bip]I[Dab][dL][Dab]LVSCA-NH2; thioether N-14)
7.79 | CC[C@H](C)[C@@H]1NC(=O)[C@H](Cc2ccc(-c3ccccc3)cc2)NC(=O)[C@H](C(C)C)NC(=O)[C@H](Cc2c[nH]c3ccccc23)NC(=O)[C@H](CC(=O)O)NC(=O)[C@H](Cc2ccc(O)cc2)NC(=O)[C@H](CC(N)=O)NC(=O)CSC[C@@H](C(=O)NCC(N)=O)NC(=O)[C@H](CO)NC(=O)[C@H](C(C)C)NC(=O)[C@H](CC(C)C)NC(=O)[C@H](CCN)NC(=O)[C@@H](CC(C)C)NC(=O)[C@H](CCCCN)NC1=O [Compound 1122] ({CH2CO}-NYDWV[Bip]IK[dL][Dab]LVSCG-NH2; thioether N-14)
7.82 | CC(C)C[C@@H]1NC(=O)[C@H](CCN)NC(=O)[C@@H](CC(C)C)NC(=O)[C@H](CCCN)NC(=O)[C@H](C(C)C)NC(=O)[C@H](Cc2ccc(-c3ccccc3)cc2)NC(=O)[C@H](C(C)C)NC(=O)[C@H](Cc2c[nH]c3ccccc23)NC(=O)[C@H](CC(=O)O)NC(=O)[C@H](Cc2ccc(O)cc2)NC(=O)[C@H](CC(N)=O)NC(=O)CSC[C@@H](C(=O)N[C@@H](C)C(N)=O)NC(=O)[C@H](CO)NC(=O)[C@H](C(C)C)NC1=O [Compound 1127] ({CH2CO}-NYDWV[Bip]V[Orn][dL][Dab]LVSCA-NH2; thioether N-14)
7.75 | CC(C)C[C@@H]1NC(=O)[C@H](CCN)NC(=O)[C@@H](CC(C)C)NC(=O)[C@H](CCCCN)NC(=O)[C@H](C(C)C)NC(=O)[C@H](Cc2ccc(-c3ccccc3)cc2)NC(=O)[C@H](C(C)C)NC(=O)[C@H](Cc2c[nH]c3ccccc23)NC(=O)[C@H](CC(=O)O)NC(=O)[C@H](Cc2ccc(O)cc2)NC(=O)[C@H](CC(N)=O)NC(=O)CSC[C@@H](C(=O)N[C@@H](C)C(N)=O)NC(=O)[C@H](CO)NC(=O)[C@H](C(C)C)NC1=O [Compound 1128] ({CH2CO}-NYDWV[Bip]VK[dL][Dab]LVSCA-NH2; thioether N-14)
7.71 | CC[C@H](C)[C@@H]1NC(=O)[C@H](Cc2ccc(-c3ccccc3)cc2)NC(=O)[C@H](C(C)C)NC(=O)[C@H](Cc2c[nH]c3ccccc23)NC(=O)[C@H](CC(=O)O)NC(=O)[C@H](Cc2ccc(O)cc2)NC(=O)[C@H](CC(N)=O)NC(=O)CSC[C@@H](C(=O)N[C@@H](C)C(N)=O)NC(=O)[C@H]([C@@H](C)O)NC(=O)[C@H](C(C)C)NC(=O)[C@H](CC(C)C)NC(=O)[C@H](CCCCN)NC(=O)[C@@H](CC(C)C)NC(=O)[C@H](CCCN)NC1=O [Compound 1129] ({CH2CO}-NYDWV[Bip]I[Orn][dL]KLVTCA-NH2; thioether N-14)
7.71 | CC(C)C[C@@H]1NC(=O)[C@H](CCCCN)NC(=O)[C@@H](CC(C)C)NC(=O)[C@H](CCCN)NC(=O)[C@H](C(C)C)NC(=O)[C@H](Cc2ccc(-c3ccccc3)cc2)NC(=O)[C@H](C(C)C)NC(=O)[C@H](Cc2c[nH]c3ccccc23)NC(=O)[C@H](CC(=O)O)NC(=O)[C@H](Cc2ccc(O)cc2)NC(=O)[C@H](CC(N)=O)NC(=O)CSC[C@@H](C(=O)N[C@@H](C)C(N)=O)NC(=O)[C@H]([C@@H](C)O)NC(=O)[C@H](C(C)C)NC1=O [Compound 1130] ({CH2CO}-NYDWV[Bip]V[Orn][dL]KLVTCA-NH2; thioether N-14)
